From article PMC5253108 (European journal of medicinal chemistry, 2016)
Like-named read-outs stand apart in the source and are kept apart here.

How the values were obtained:
HepG2 liver cells = assay: In vitro cytotoxicity, Cell-Titer Glo viability, HepG2; format: cell-based; settings: 48 hours
[1] = tested on: BEAS2B lung epithelial cells; assay: In vitro cytotoxicity, Cell-Titer Glo viability, BEAS2B; format: cell-based; settings: 48 hours
Swiss Webster mice [2] = assay: Rotarod assay of sensorimotor coordination in mice; settings: for sensorimotor impairment on rotarod: 40 mg/kg i.p., Swiss Webster mice, 10, 30 and 60 min
[3] = In vitro liver microsomal stability; format: in vitro ADME, mouse; settings: for metabolically converted after one hour: corresponds to mouse liver microsome values of Table 1
HEK293 kidney cells = format: cell-based; settings: 48 hours, Cell-Titer Glo
[4] = Solubility in rotarod vehicle; settings: 50% PBS, 40% propylene glycol, 10% DMSO; for 40 mg/kg i.p. dosing
[5] = Solubility at 10 µM in PBS with 1% DMSO; format: physicochemical; settings: aqueous buffer, kinetic from dmso stock
[6] = In vitro liver microsomal stability; format: in vitro ADME; settings: human
Swiss Webster mice [7] = settings: cited from earlier work
[8] = tested on: guinea pig tracheal rings; settings: cited from earlier work
[9] = Pharmacokinetic study in mice; format: in vivo, mouse; settings: after 5 mg/kg i.p. of 16, mouse blood
airway eosinophilia = settings: cited from earlier work

Compound	Toxicity in HEPG2 (Liver) LD50 (HepG2 liver cells)	Toxicity in BEAS 2B (Lung) LD50 [1]	sensorimotor impairment on rotarod (Swiss Webster mice [2])	Toxicity in HEK293 (Kidney) LD50 (HEK293 kidney cells)	loss at 1 h in mouse liver microsomes [3]	also measured
COC(=O)c1ncn2c1[C@@H]1CCCN1C(=O)c1cc(OC)ccc1-2 [Compound 10, (S)-Methyl-7-methoxy-9-oxo-11,12,13,13a-tetrahydro-9H-benzo[e]imidazo[5,1-c]pyrrolo[1,2-a][1,4]diazepine-1-carboxylate]	>400 µM	>400 µM	did not induce any sensorimotor impairment	>400 µM		metabolically converted after one hour [3]: 30%
CCSC(=O)c1ncn2c1[C@@H]1CCCN1C(=O)c1cc(OC)ccc1-2 [Compound 13]	>100 µM	>100 µM		>100 µM		solubility in the vehicle [4]: not soluble in the vehicle; solubility [5]: < 10 µM
[2H]C([2H])([2H])Oc1ccc2c(c1)C(=O)N1CCC[C@H]1c1c(C(=O)O)ncn1-2 [Compound 9a]	>400 µM	>400 µM	did not induce sensorimotor impairment	>400 µM	less than 20%	
[2H]C([2H])([2H])Oc1ccc2c(c1)C(=O)N1CCC[C@H]1c1c(C(=O)SCC)ncn1-2 [Compound 13a]	>100 µM	>100 µM		>100 µM		solubility in the vehicle [4]: not soluble in the vehicle; solubility [5]: < 10 µM
CC(C)(C)OC(=O)c1ncn2c1[C@@H]1CCCN1C(=O)c1cc(O)ccc1-2 [Compound 8]	>400 µM	>400 µM				
COc1ccc2c(c1)C(=O)N1CCC[C@H]1c1c(C(=O)NC3CC3)ncn1-2 [Compound 19]	>400 µM	>400 µM		>200 µM	less than 20%	toxicity in HEK293 cells (HEK293 kidney cells): some toxicity; remaining at 1 h ([6]; microsomes): < 80%
COc1ccc2c(c1)C(=O)N1CCC[C@H]1c1c(C(=O)OC(C(F)(F)F)C(F)(F)F)ncn1-2 [Compound 12]	>400 µM	>400 µM		>200 µM		solubility in the vehicle [4]: not soluble in the vehicle; solubility [5]: < 10 µM
[2H]C([2H])([2H])Oc1ccc2c(c1)C(=O)N1CCC[C@H]1c1c(C(=O)OC(C(F)(F)F)C(F)(F)F)ncn1-2 [Compound 12a]	>400 µM	>400 µM		>200 µM		solubility in the vehicle [4]: not soluble in the vehicle; remaining at 1 h ([6]; microsomes): < 80%
COc1ccc2c(c1)C(=O)N1CCC[C@H]1c1c(C(=O)NC(C)(C)C)ncn1-2 [Compound 18]	>400 µM	>400 µM		>200 µM		
[2H]C([2H])([2H])Oc1ccc2c(c1)C(=O)N1CCC[C@H]1c1c(C(=O)NC3CC3)ncn1-2 [Compound 19a]	>400 µM				less than 20%	toxicity in HEK293 cells (HEK293 kidney cells): some toxicity
[2H]C([2H])([2H])Oc1ccc2c(c1)C(=O)N1CCC[C@H]1c1c(C(=O)OCC(C)C)ncn1-2 [Compound 11a]	>200 µM	>200 µM	most severe motor impairment	>100 µM		remaining at 1 h ([6]; microsomes): < 80%
CNC(=O)c1ncn2c1[C@@H]1CCCN1C(=O)c1cc(OC)ccc1-2 [Compound 15]	>400 µM	>400 µM	most severe motor impairment	>100 µM		
[2H]C([2H])([2H])Oc1ccc2c(c1)C(=O)N1CCC[C@H]1c1c(C(=O)N(C)C)ncn1-2 [Compound 16a]	>400 µM	>400 µM	did not induce sensorimotor impairment	>400 µM	less than 20%	
[2H]C([2H])([2H])Oc1ccc2c(c1)C(=O)N1CCC[C@H]1c1c(C(=O)NC(C)(C)C)ncn1-2 [Compound 18a]	>400 µM		most severe motor impairment			
CCNC(=O)c1ncn2c1[C@@H]1CCCN1C(=O)c1cc(OC)ccc1-2 [Compound 17]	>400 µM	>400 µM		>400 µM		
[2H]C([2H])([2H])Oc1ccc2c(c1)C(=O)N1CCC[C@H]1c1c(C(=O)NC)ncn1-2 [Compound 15a]	>400 µM	>400 µM		>100 µM		
[2H]C([2H])([2H])Oc1ccc2c(c1)C(=O)N1CCC[C@H]1c1c(C(=O)NCC)ncn1-2 [Compound 17a]	>400 µM		did not induce sensorimotor impairment		less than 20%	
[2H]C([2H])([2H])Oc1ccc2c(c1)C(=O)N1CCC[C@H]1c1c(C(=O)OC)ncn1-2 [Compound 10a]	>400 µM	>400 µM	most severe motor impairment	>400 µM	less than 20%	metabolically converted after one hour [3]: 15%
[2H]C([2H])([2H])Oc1ccc2c(c1)C(=O)N1CCC[C@H]1c1c(C(=O)SC(C)(C)C)ncn1-2 [Compound 14a]	>100 µM	>100 µM		16.8 ± 2.0 µM		solubility in the vehicle [4]: not soluble in the vehicle; solubility [5]: < 10 µM
COc1ccc2c(c1)C(=O)N1CCC[C@H]1c1c(C(=O)O)ncn1-2 [Compound 9, (S)-7-Methoxy-9-oxo-11,12,13,13a-tetrahydro-9H-benzo[e]imidazo[5,1-c]pyrrolo[1,2-a][1,4]di-azepine-1-carboxylic acid]	>400 µM	>400 µM		>400 µM		CNS effects (Swiss Webster mice [7]): no CNS effects; airway muscle constriction caused by substance P [8]: significantly reduced airway muscle constriction; metabolite in blood samples [9]: not detected in any blood samples; airway eosinophilia (airway eosinophilia): decreased airway eosinophilia; airway eosinophilia (airway eosinophilia; listed as XHE-III-74A): significantly reduced airway eosinophilia; remaining at 1 h ([6]; liver microsomes): < 80%
COc1ccc2c(c1)C(=O)N1CCC[C@H]1c1c(C(=O)SC(C)(C)C)ncn1-2 [Compound 14]	>100 µM	>100 µM		18.8 ± 2.4 µM		solubility in the vehicle [4]: not soluble in the vehicle; solubility [5]: < 10 µM
COc1ccc2c(c1)C(=O)N1CCC[C@H]1c1c(C(=O)OCC(C)C)ncn1-2 [Compound 11, (S)-Isobutyl-7-methoxy-9-oxo-11,12,13,13a-tetrahydro-9H-benzo[e]imidazo[5,1-c]pyrrolo[1,2-a][1,4]diazepine-1-carboxylate]	>200 µM	>200 µM		>100 µM		solubility in the vehicle [4]: not soluble in the vehicle; remaining at 1 h ([6]; microsomes): < 80%
CCOC(=O)c1ncn2c1[C@@H]1CCCN1C(=O)c1cc(O)ccc1-2 [Compound 6]	>400 µM	>400 µM	did not induce sensorimotor impairment		less than 20%	
CN1C(=O)CN=C(c2ccccc2)c2cc(Cl)ccc21 [diazepam, reference compound]						sensorimotor impairment on rotarod, positive control (Swiss Webster mice [2]; 5 mg/kg i.p., Swiss Webster mice): greatest impairment of sensorimotor steadiness at 10 minutes
[2H]C([2H])([2H])Oc1ccc2c(c1)C(=O)N1CCC[C@H]1c1c(C(=O)OC(C)(C)C)ncn1-2 [Compound 7a]	>400 µM	>200 µM		>100 µM		
[2H]C([2H])([2H])Oc1ccc2c(c1)C(=O)N1CCC[C@H]1c1c(C(=O)OCC)ncn1-2 [Compound 5a]	>400 µM	>400 µM		>400 µM	less than 20%	
